Molecular target: T1, full length AKT E17K (Homo sapiens, UniProt P31749, E17K)
T1 construct: host or cells: HEK-293 (ATCC CRL-1573)
Test: NanoBRET Target Engagement (TE) Assay
Assay type: cell-based
Conditions: competitive displacement of tracer in cells, read-out: AKT1 E17K IC50
Outline: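 Compound and tracer incubated 2 h before luminescence at donor 450 nm and acceptor 600 nm, with extracellular signal inhibited. EC50 by sigmoidal variable-slope regression.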

T1 sequence (P31749 whole entry E17K): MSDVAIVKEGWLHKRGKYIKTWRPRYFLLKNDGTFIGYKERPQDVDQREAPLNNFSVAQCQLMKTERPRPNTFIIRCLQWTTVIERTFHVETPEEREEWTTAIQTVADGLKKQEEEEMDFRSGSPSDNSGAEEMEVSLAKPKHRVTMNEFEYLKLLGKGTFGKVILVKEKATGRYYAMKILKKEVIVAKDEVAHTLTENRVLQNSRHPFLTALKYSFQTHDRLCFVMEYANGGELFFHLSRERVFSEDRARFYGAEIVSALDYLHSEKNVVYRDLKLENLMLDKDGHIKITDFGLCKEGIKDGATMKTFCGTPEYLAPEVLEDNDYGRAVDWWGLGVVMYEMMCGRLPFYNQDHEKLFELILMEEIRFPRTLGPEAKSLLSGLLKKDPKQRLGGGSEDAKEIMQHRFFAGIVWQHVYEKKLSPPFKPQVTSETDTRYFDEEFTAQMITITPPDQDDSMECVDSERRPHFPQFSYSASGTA

Compound | IC50 [µM]
N#Cc1ncnc(NC2CC3(CCN(Cc4ccc(-n5c(-c6cccnc6N)nc6ccc(N7CCOCC7)nc65)cc4)CC3)C2)n1 [Example 434, 4-((7-(4-(2-(2-Aminopyridin-3-yl)-5-morpholino-3H-imidazo[4,5-b]pyridin-3-yl)benzyl)-7-azaspiro[3.5]nonan-2-yl)amino)-1,3,5-triazine-2-carbonitrile] | 0.015 to 0.06
CS(=O)(=O)c1ccc2nc(-c3cccnc3N)n(-c3ccc(CN4CCC(Nc5ccnc(C#N)n5)CC4)cc3)c2n1 [Example 436, 4-((1-(4-(2-(2-Aminopyridin-3-yl)-5-(methylsulfonyl)-3H-imidazo[4,5-b]pyridin-3-yl)benzyl)piperidin-4-yl)amino)pyrimidine-2-carbonitrile] | 0.06 to 0.6
N#Cc1nccc(NC2CN(Cc3ccc(-n4c(-c5cccnc5N)nc5ccc(-c6ccc(F)cc6)nc54)cc3)C2)n1 [Example 443, 4-((1-(4-(2-(2-Aminopyridin-3-yl)-5-(4-fluorophenyl)-3H-imidazo[4,5-b]pyridin-3-yl)benzyl)azetidin-3-yl)amino)pyrimidine-2-carbonitrile] | < 0.015
N#Cc1nccc(NC2CC3(CCN(Cc4ccc(-n5c(-c6cccnc6N)nc6ccc(-c7ccc(F)cc7)nc65)cc4)CC3)C2)n1 [Example 444, 4-((7-(4-(2-(2-Aminopyridin-3-yl)-5-(4-fluorophenyl)-3H-imidazo[4,5-b]pyridin-3-yl)benzyl)-7-azaspiro[3.5]nonan-2-yl)amino)pyrimidine-2-carbonitrile] | 0.015 to 0.06
N#Cc1nccc(NC2CC3(C2)CN(Cc2ccc(-n4c(-c5cccnc5N)nc5ccc(-c6ccc(F)cc6)nc54)cc2)C3)n1 [Example 445, 4-((2-(4-(2-(2-Aminopyridin-3-yl)-5-(4-fluorophenyl)-3H-imidazo[4,5-b]pyridin-3-yl)benzyl)-2-azaspiro[3.3]heptan-6-yl)amino)pyrimidine-2-carbonitrile] | < 0.015
N#Cc1nccc(NC2CCC3(CC2)CN(Cc2ccc(-n4c(-c5cccnc5N)nc5ccc(-c6ccc(F)cc6)nc54)cc2)C3)n1 [Example 446, 4-((2-(4-(2-(2-Aminopyridin-3-yl)-5-(4-fluorophenyl)-3H-imidazo[4,5-b]pyridin-3-yl)benzyl)-2-azaspiro[3.5]nonan-7-yl)amino)pyrimidine-2-carbonitrile] | 0.015 to 0.06
N#Cc1nccc(N2CC3(CN(Cc4ccc(-n5c(-c6cccnc6N)nc6ccc(-c7ccc(F)cc7)nc65)cc4)C3)C2)n1 [Example 447, 4-(6-(4-(2-(2-Aminopyridin-3-yl)-5-(4-fluorophenyl)-3H-imidazo[4,5-b]pyridin-3-yl)benzyl)-2,6-diazaspiro[3.3]heptan-2-yl)pyrimidine-2-carbonitrile] | < 0.015
N#Cc1nccc(N2CC3CCC(C2)N3Cc2ccc(-n3c(-c4cccnc4N)nc4ccc(-c5ccc(F)cc5)nc43)cc2)n1 [Example 448, 4-(8-(4-(2-(2-Aminopyridin-3-yl)-5-(4-fluorophenyl)-3H-imidazo[4,5-b]pyridin-3-yl)benzyl)-3,8-diazabicyclo[3.2.1]octan-3-yl)pyrimidine-2-carbonitrile] | 0.015 to 0.06
N#Cc1nccc(N2C[C@H]3CN(Cc4ccc(-n5c(-c6cccnc6N)nc6ccc(-c7ccc(F)cc7)nc65)cc4)C[C@H]3C2)n1 [Example 449, 4-((3aR,6aS)-5-(4-(2-(2-Aminopyridin-3-yl)-5-(4-fluorophenyl)-3H-imidazo[4,5-b]pyridin-3-yl)benzyl)hexahydropyrrolo[3,4-c]pyrrol-2(1H)-yl)pyrimidine-2-carbonitrile] | 0.015 to 0.06
N#Cc1nccc(N2C[C@@H]3CN(Cc4ccc(-n5c(-c6cccnc6N)nc6ccc(-c7ccc(F)cc7)nc65)cc4)C[C@H]3C2)n1 [Example 450, 4-((3aS,6aS)-5-(4-(2-(2-Aminopyridin-3-yl)-5-(4-fluorophenyl)-3H-imidazo[4,5-b]pyridin-3-yl)benzyl)hexahydropyrrolo[3,4-c]pyrrol-2(1H)-yl)pyrimidine-2-carbonitrile] | 0.015 to 0.06

Now from value to molecule:

IC50 [µM] | Compound
< 0.015 | N#Cc1nccc(N2CCN(Cc3ccc(-n4c(-c5cccnc5N)nc5ccc(-c6cccnc6)nc54)cc3)CC2)n1 [Example 432]
< 0.015 | N#Cc1nccc(NC2CCN(Cc3ccc(-n4c(-c5cccnc5N)nc5ccc(-c6ccncc6)nc54)cc3)CC2)n1 [Example 433, 4-((1-(4-(2-(2-Aminopyridin-3-yl)-5-(pyridin-4-yl)-3H-imidazo[4,5-b]pyridin-3-yl)benzyl)piperidin-4-yl)amino)pyrimidine-2-carbonitrile]
< 0.015 | CSc1ccc2nc(-c3cccnc3N)n(-c3ccc(CN4CCC(Nc5ccnc(C#N)n5)CC4)cc3)c2n1 [Example 435, 4-((1-(4-(2-(2-Aminopyridin-3-yl)-5-(methylthio)-3H-imidazo[4,5-b]pyridin-3-yl)benzyl)piperidin-4-yl)amino)pyrimidine-2-carbonitrile]
< 0.015 | COc1ccnc(-c2ccc3nc(-c4cccnc4N)n(-c4ccc(CN5CCC(Nc6ccnc(C#N)n6)CC5)cc4)c3n2)c1 [Example 437, 4-((1-(4-(2-(2-Aminopyridin-3-yl)-5-(4-methoxypyridin-2-yl)-3H-imidazo[4,5-b]pyridin-3-yl)benzyl)piperidin-4-yl)amino)pyrimidine-2-carbonitrile]
< 0.015 | Cn1cc(-c2ccc3nc(-c4cccnc4N)n(-c4ccc(CN5CCC(Nc6ccnc(C#N)n6)CC5)cc4)c3n2)nn1 [Example 438, 4-((1-(4-(2-(2-Aminopyridin-3-yl)-5-(1-methyl-1H-1,2,3-triazol-4-yl)-3H-imidazo[4,5-b]pyridin-3-yl)benzyl)piperidin-4-yl)amino)pyrimidine-2-carbonitrile]
< 0.015 | COc1cc(-c2ccc3nc(-c4cccnc4N)n(-c4ccc(CN5CCC(Nc6ccnc(C#N)n6)CC5)cc4)c3n2)ccc1F [Example 439, 4-((1-(4-(2-(2-Aminopyridin-3-yl)-5-(4-fluoro-3-methoxyphenyl)-3H-imidazo[4,5-h]pyridin-3-yl)benzyl)piperidin-4-yl)amino)pyrimidine-2-carbonitrile]
< 0.015 | CC(=O)Nc1cccc(-c2ccc3nc(-c4cccnc4N)n(-c4ccc(CN5CCC(Nc6ccnc(C#N)n6)CC5)cc4)c3n2)c1 [Example 440, N-(3-(2-(2-Aminopyridin-3-yl)-3-(4-((4-((2-cyanopyrimidin-4-yl)amino)piperidin-1-yl)methyl)phenyl)-3H-imidazo[4,5-b]pyridin-5-yl)phenyl)acetamide]
< 0.015 | [2H]C([2H])([2H])N(c1ccnc(C#N)n1)C1CCN(Cc2ccc(-n3c(-c4cccnc4N)nc4ccc(-c5ccc(F)cc5)nc43)cc2)CC1 [Example 441, 4-((1-(4-(2-(2-Aminopyridin-3-yl)-5-(4-fluorophenyl)-3H-imidazo[4,5-b]pyridin-3-yl)benzyl)piperidin-4-yl)(methyl-d3)amino)pyrimidine-2-carbonitrile]
< 0.015 | [2H]C([2H])([2H])N(c1ccnc(C#N)n1)C1CCN(C([2H])([2H])c2ccc(-n3c(-c4cccnc4N)nc4ccc(-c5ccc(F)cc5)nc43)cc2)CC1 [Example 442, 4-((1-((4-(2-(2-Aminopyridin-3-yl)-5-(4-fluorophenyl)-3H-imidazo[4,5-b]pyridin-3-yl)phenyl)methyl-d2)piperidin-4-yl)(methyl-d3)amino)pyrimidine-2-carbonitrile]

From patent publication US12209087B2, “AKT1 modulators” (Alterome Therapeutics, Inc., priority 2022, dated 2025)
